Assay results: US20090136968A1, “Novel in vitro methods for studying receptors recognizing volatile compounds” (Chemcom S. A., priority 2005, published 2009)

Key:
HEK 293T wt = assay: CCBSA microplate calcium flux on HEK 293T wild type cells (specificity control); assay type: cell-based
Procedure: (§1) A solution of BP including SA, OBP and/or olfactory mucus (see concentration in the text) was incubated in the presence of odorant in a sealed flask for 16 hours at 4° C. (FIG. 3A). Such incubated-BP solution was then used as tested complex on olfactory receptor-expressing cells. Prior to incubation with such complex, cells were incubated for 1 hour with 4 μM Fluo4-AM (Molecular Probe) in the presence of 1 mM probenecid, and then rinsed twice with Fluo4-AM free HBSS buffer. After injection of odorant-BP complex on OR expressing cells, calcium flux was followed by measuring fluorescence at 520 nm ([…]) on FDSS, a plate reader from Hamamatsu Photonics K.K. (Japan) at 25° C.
For this novel assay, mOR-I7 activation was assessed by octanal. A constant volume of olfactory mucus was incubated in the presence of increasing amount of octanal ranging from 0 to 16 μl of a solution of 1M octanal. […] Calcium flux was followed with Fluo4 on FDSS, a plate reader from Hamamatsu Photonics K.K. (Japan).
However this fraction 4 contained two major proteins, bOBP and BSA. […] Calcium-flux was followed on a plate reader (Hamamatsu Photonics K.K., Japan) with fluo4 as fluorescent dye (FIG. 6 A to F). […] Such phenomenon is usually observed in such fluorescence assay when increasing ligand concentrations are injected.

mOR-I7 [1] = target: T1, mOR-I7 (Mus musculus, UniProt Q9QWU6); assay: Novel olfactory functional assay (CCBSA), microplate calcium flux (Fluo4, FDSS) on HEK 293T overexpressing mOR-I7; assay type: cell-based; conditions: for hit / potential ligand of mOR-I7 in screening of 30 odorants: carrier fraction 4 (bOBP and BSA) incubated with 16 μl of 1M odorant, ratio mOR-I7 on Wt, standardized to 1 mM ATP
T1 construct: expressed in transfected cells; host or cells: HEK 293T
T1 sequence (Q9QWU6 1-327): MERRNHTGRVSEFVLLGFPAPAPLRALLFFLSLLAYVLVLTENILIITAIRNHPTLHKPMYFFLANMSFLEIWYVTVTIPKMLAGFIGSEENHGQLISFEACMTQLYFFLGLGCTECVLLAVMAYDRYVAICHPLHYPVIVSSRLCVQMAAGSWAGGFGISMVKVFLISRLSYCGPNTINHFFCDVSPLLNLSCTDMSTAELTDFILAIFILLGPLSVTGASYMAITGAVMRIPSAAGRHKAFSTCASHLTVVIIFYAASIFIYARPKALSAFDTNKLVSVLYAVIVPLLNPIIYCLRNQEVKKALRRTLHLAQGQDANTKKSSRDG
Procedure: as §1
In an attempt to be closer to physiological process of olfaction and thereof to increase specificity and sensitivity of the cell-based assay described above, a novel olfactory functional assay was developed. Most of the time, mammalian smells volatile odorant molecules. However in the cell-based assay described above as in most cell-based assays, odorant molecules were injected into aqueous buffer. Such injection may lead to formation of micelles that can alter efficacy and specificity of ligands. Therefore a cell-based assay was developed focusing an a better solubilization of odorants. In summary, in a sealed flask, bovine olfactory mucus was incubated in the presence of an odorant (FIG. 3A). It was hereby tested if an odorant would be trapped and solubilized in that fluid. Thereafter, such solubilized odorant was injected onto cultured-cells overexpressing an olfactory receptor. Activation of this receptor could then be followed by conventional assay including fluorescent (FIGS. 3 B and C) and luminescent calcium assays.
For this novel assay, mOR-I7 activation was assessed by octanal. A constant volume of olfactory mucus was incubated in the presence of increasing amount of octanal ranging from 0 to 16 μl of a solution of 1M octanal. After 16 hours incubation at 4° C., bovine olfactory mucus was injected on HEK 293T overexpressing mOR-I7. Calcium flux was followed with Fluo4 on FDSS, a plate reader from Hamamatsu Photonics K.K. (Japan).
Capacity of fraction 4 to fulfil the role of odorant solubilizator was assessed in the newly proposed assay. Screening of 30 odorant molecules (FIG. 5A) was performed on HEK 293T wild type (FIG. 5C) or overexpressing mOR-I7 (FIG. 5B). Fraction 4 was incubated overnight at 4° C. […] These odorants led to at least one fold more activation of HEK 293T overexpressing mOR-I7 than the wild type counterpart. They can be classified into two groups. One group (FIG. 5 E (a) to (e)) gathers molecules that fit the olfactophore 1 depicted in FIG. 5 E (j). They are schematically made of 2 electronegative poles distanced by 6 carbons. They all contain a 6-8 carbon chain ended by an electronegative group as depicted by olfactophore 2 represented in FIG. 5 E (k).
However this fraction 4 contained two major proteins, bOBP and BSA. Thus the results of said Example could in this approach not rule out any implication of BSA into fraction 4 properties. Therefore the capacity of BSA to solubilize and thereof to enhance the efficacy of odorants in the novel cell based olfactory functional assay as described by the present invention has been tested. To be as close as possible to BSA concentration observed in fraction 4. BSA concentration was set up at 5×10^−6 M for the following experiments (marked by an arrow on FIG. 6 G). Fraction 4 and a solution of fatty acid-free BSA were incubated at 4° C. for 16 hours in the presence of increasing volume of 1M octanal. So-incubated solutions were then applied onto HEK 293T wt or overexpressing mOR-I7. Calcium-flux was followed on a plate reader (Hamamatsu Photonics K.K., Japan) with fluo4 as fluorescent dye (FIG. 6 A to F). […] Such phenomenon is usually observed in such fluorescence assay when increasing ligand concentrations are injected. […]

mOR-I7 [2] = target: T1, mOR-I7; conditions: literature (references); cited from earlier work
[3] = fraction 4 or BSA solution incubated with increasing volume of 1M octanal

- hits / potential ligands of mOR-I7 through the 4 screenings (mOR-I7 [1]; BSA as carrier, calcium flux and cAMP screenings together): hits
- ligands of mOR-I7 in two independent calcium flux screenings of 30 odorants (mOR-I7 [1]; BSA as carrier, standardized to 100 μM ATP): consistent
- fluorescence intensity (calcium flux) (mOR-I7 [1]; bovine olfactory mucus incubated with 0 to 16 μl of 1M octanal, 16 hours 4° C.): proportional to the volume of odorant
- hit / potential ligand of mOR-I7 in screening of 30 odorants (mOR-I7 [1]): potential ligands of mOR-I7
- hit / potential ligand of mOR-I7 in screening of 30 odorants (mOR-I7 [1]; listed as 1-octanal): hits
- calcium flux in HEK 293T overexpressing mOR-I7 (mOR-I7 [1]; fraction 4 or BSA solution (5×10^−6 M) incubated with increasing volume of 1M octanal, kinetics over 300 seconds): calcium flux was detected
- dependence of fluorescence intensity on amount of odorant (mOR-I7 [1]; [3]): proportional to the amount of odorant
- time required to reach maximum fluorescence (mOR-I7 [1]; [3]): decreased when odorant volume increased
SMILES: CCCCCCCC=O [octanal]
- cell response on wt cells (HEK 293T wt; bovine olfactory mucus incubated with octanal): no cell response
- fluorescence in HEK 293T wt (HEK 293T wt; fraction 4 or BSA solution (5×10^−6 M) incubated with 1M octanal): no fluorescence appeared
- known activation of mOR-I7 (mOR-I7 [2]): activated specifically
